# Laboratory results from article PMC3285689, “Structure Based Design and Synthesis of Peptide Inhibitor of Human LOX-12: In Vitro and In Vivo Analysis of a Novel Therapeutic Agent for Breast Cancer” (PLoS ONE, 2012).
# Where “and” joins values, the source holds several entries; their conditions need not be identical. Equal entries are not always repeated. Entries after “also recorded” stand apart in the source; their conditions may differ. Where two headings read alike, the source gives them in different places. Where a SMILES comes first, the peptide text is derived from it.
# T1: LOX-12 (Homo sapiens, UniProt P18054)
# T1 construct: made in house; host or cells: E. coli BL21 codon+ (pET28a)
# T1 sequence (P18054 1-663): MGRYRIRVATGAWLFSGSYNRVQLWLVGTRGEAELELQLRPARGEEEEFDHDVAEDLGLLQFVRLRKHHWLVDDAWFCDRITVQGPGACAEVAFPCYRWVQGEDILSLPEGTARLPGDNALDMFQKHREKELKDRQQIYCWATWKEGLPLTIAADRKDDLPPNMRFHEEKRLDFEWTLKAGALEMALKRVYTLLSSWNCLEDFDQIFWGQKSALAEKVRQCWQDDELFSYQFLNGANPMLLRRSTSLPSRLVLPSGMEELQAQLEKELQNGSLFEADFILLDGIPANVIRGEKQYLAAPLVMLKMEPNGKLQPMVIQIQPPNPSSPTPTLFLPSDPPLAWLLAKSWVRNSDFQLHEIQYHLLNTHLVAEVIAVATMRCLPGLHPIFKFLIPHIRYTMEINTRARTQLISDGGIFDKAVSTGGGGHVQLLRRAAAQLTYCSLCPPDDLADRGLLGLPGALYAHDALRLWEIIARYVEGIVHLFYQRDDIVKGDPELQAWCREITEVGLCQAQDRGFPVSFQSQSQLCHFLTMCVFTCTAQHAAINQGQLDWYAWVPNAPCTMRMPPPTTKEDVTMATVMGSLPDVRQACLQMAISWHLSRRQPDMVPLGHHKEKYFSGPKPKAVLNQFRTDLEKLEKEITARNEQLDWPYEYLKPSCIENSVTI
# T2: human LOX-12 (human) (UniProt P18054)
# T2 sequence: T1 sequence (P18054 1-663)
# B1: FWCS (peptide)
# peptide: FWCS
# B2: AIYW (peptide)
# peptide: AIYW
# B3: YWCS (peptide)
# peptide: YWCS
# Tests used:
# [1] = target: T1, LOX-12; test: Inhibition of human LOX-12 activity, spectrophotometric screen; format: biochemical; conditions: LOX-12 incubated with peptide 30 min; arachidonic acid, 0.2% Tween-20, 50 mM potassium phosphate pH 7.2; absorbance 269 nm; average of triplicates; inhibitor concentration not given
# Procedure: For inhibition study, the human LOX-12 was incubated with peptide for 30 min, which was then added to the reaction buffer containing arachidonic acid (substrate), 0.2% Tween-20, 50 mM potassium phosphate buffer pH 7.2. The change in absorbance was monitored at 269 nm and the percentage of inhibition was calculated. A control reaction was always carried out without any peptide inhibitor to ensure the activity of protein under experimental conditions.
# The activity assay for LOX-12 in presence of 10 different peptides with substrate was performed by using spectrophotometer. The assay was performed at 269 nm which gives the absorption maxima for the product LTB4.
# [2] = target: T2, human LOX-12 (human)
# [3] = target: T1, LOX-12; test: Kinetic assay of LOX-12 inhibition (Michaelis-Menten, competitive Ki); format: biochemical
# Procedure: For kinetic assay, the above experiment was done with four different concentrations of peptides (25–100 µM). For each concentration of peptide the experiment was repeated with six different concentrations (20–120 µM) of substrate, arachidonic acid. The enzyme concentration was constant (1.0 µM) throughout the assay. The competitive kinetic constant (Ki) was calculated graphically using the Michaelis-Menton equation in graphpad prism software. The graph of activity vs. concentration of arachidonic acid was plotted.
# Competitive kinetic constant of the best peptide YWCS was calculated using graphpad prism software.
# [4] = system: MCF-7 cells; test: Annexin-V binding apoptosis assay by flow cytometry, MCF-7; format: cell-based, human; conditions: 72 h, annexin-V/PI flow cytometry
# Procedure: The frequency of apoptosis in MCF7 cells and MDA-MB-231 by the treatment with YWCS was assayed by annexin-V binding assay. Briefly, MCF7 cells and MDA-MB-231 were pulsed with the peptide for 72 h. After termination of the culture, cells were stained with annexin-V apoptosis detection kit (Biolegend) according to the manufacturer's instructions. The cells were washed twice with PBS, and resuspended in annexin-V binding buffer. To the cell suspension, 5 µl of FITC-conjugated annexin-V (Biolegend) and 10 µl of propidium iodide (PI) (50 µg/ml) solution were added and further incubated for 15 min at room temperature. About 10,000 events were acquired in FACS Canto flow cytometer (Becton–Dickinson, USA). The frequency of annexin-positive (apoptotic) cells was determined using BD FACSDiva software.
# The apoptotic activity of the peptide YWCS was performed using annexin-V binding assay. Apoptosis induction was observed as early as 72 h.
# [5] = target: T1, LOX-12; test: SPR binding of peptides to immobilized His-LOX-12 (BIAcore 2000); conditions: His-LOX-12 on Ni2+-NTA chip, analyte 25, 50, 75 µM, flow 10 µl/min, BIA evaluation 3.0, read-out: Dissociation constant KD
# [6] = system: MCF-7; conditions: MCF-7, MTT, 72 h
# Procedure: (§1) Cytotoxic effect of LOX-12 inhibitory peptides was analyzed on MCF-7 (ER+) and MDA-MB-231 (ER+) breast cancer cell lines by MTT [3-(4, 5-dimethylthiazol-2-yl)-2, 5-diphenyltetrazolium bromide] dye reduction assay. Briefly, 3×10^3 cells/100 µl media were seeded in 96-well plates 24 h before the experiment. The cells were then incubated with different concentrations of the peptides for 24, 48 and 72 h as indicated. The cells were treated with DMSO (same concentration as used to solubilise the peptide) which was then subtracted from all the cytotoxic values.10 µl/well MTT-solution (10 mg/ml in PBS) was then added and plates were further incubated for 3 h at 37°C. The formazan crystals formed were dissolved by adding 100 µl/well of dimethyl sulfoxide (DMSO). Absorbance was measured by a microplate reader at 570 nm with a reference filter 650 nm. 100 µl of medium with 10 µl of MTT stock-solution and 100 µl of DMSO was used as a blank solution to correct the background. The data obtained was presented as percentage viability in the best-fit (linear) dose response curve. The IC50 values at 95% confidence intervals was calculated for all cell lines. Each concentration was used in triplicate. The peptide AIRS was used as a negative control.
# (§2) MCF-7 cells were treated with 0–150 µM (0.05% DMSO as a vehicle control) and MDA-MB-231 was treated with 0–500 µM (0.05% DMSO as a vehicle control) of the LOX-12 inhibitory peptides for 24, 48 and 72 h to perform the cytotoxic activity.
# [7] = system: Ehrlich's Ascites Tumor cell line (EAT) (murine breast carcinoma); test: Antitumor activity in Swiss albino mice implanted with EAT tumor cell line; format: in vivo
# Procedure: In-vivo animal experimentation of peptide for anticancer activity was done using mice model. Swiss albino mice were obtained from Central animal facility, AIIMS at 55–65 days of age. The animals were housed in polycarbonated cages, bedded with husk. The animal facility was environmentally controlled; mice were maintained at normal room temperature with suitable relative humidity and 12 h light, 12 h dark cycle. Animals were fed chow food and purified water ad libitum throughout the study. Animals were randomized into 5mice per cage in 3 groups (Group I, II and III) for the study.
# Ehrlich's Ascites Tumor cell line (EAT) (murine breast carcinoma), was used for tumor induction. The cell line was maintained in-vivo by passaging weekly intraperitonealy (i.p) from mice to mice. For tumor induction, 14 million cells approximately 150 µl volumes was injected to the animal in a group subcutaneously on the dorsal side of the body (back) and kept under observation for tumor onset.
# Tumor size was recorded by vernier calipers and tumor volume was calculated using the formula: V = 0.5×L×W^2, where L is the length (long axis) and W is the width (short axis).
# In Group I (control, untreated) only tumor cell line was administered. In group II, YWCS peptide was administered when the tumor volume reached 0.22±0.10 cm^3 on day 10, at a dose of […] intravenously (i.v) per mouse once daily for 20 days from day 11 to day 30. In group III, same concentration of peptide was injected intravenously (i.v) simultaneously after injecting tumor cells subcutaneously on day one. During experimental period mice were under observation till sacrificed.
# [8] = system: human red blood cells; test: Hemolysis of human red blood cells; format: cell-based; conditions: concentration upto 358 µM; hRBC 1% (v/v) in PBS pH 7.0, 1 h at 37°C, absorbance 541 nm, triplicate
# Procedure: The effect of peptide on hemolysis was determined by using human red blood cells (hRBC from volunteer). The freshly collected hRBC were centrifuged for 10 mins to remove the buffy coat and washed with phosphate buffered saline (PBS: 35 mM Na2HPO4, pH 7.0 and 150 mM NaCl). 100 µl of the hRBC (suspended in 1% (v/v) in PBS) and 10 µl peptide solution were added into the sterile 96 well plates in triplicate. The plates were incubated for 1 h at 37°C and centrifuged at 1000× g for 5 mins. The supernatant were transferred to fresh 96 well plates, where hemoglobin released was monitored by measuring the absorbance spectrophotometrically at 541 nm. Similar steps were carried out for Gentamycin, as a control. The percentage of hemolysis (determined in PBS and 0.1% Triton X-100) was calculated from the standard graph which was plotted with % hemolysis of prepared RBCs vs optical densities.
# The haemolytic activity of the peptide was determined to ensure the toxicity to erythrocytes using human RBCs. The concentration upto 358 µM of the peptide lysed only 22% human erythrocytes ( Figure 2 ).
# [9] = system: MDA-MB-231; conditions: 72 h; for percentage of cell viability: MDA-MB-231, MTT
# Procedure: as §1, §2
# [10] = system: MDA-MB-231 cells; test: Annexin-V binding apoptosis assay by flow cytometry, MDA-MB-231; format: cell-based, human; conditions: 72 h, annexin-V/PI flow cytometry
# [11] = target: T2, human LOX-12 (human); remark: listed apart in the source
# [12] = target: T2, human LOX-12 (human); test: enzyme inhibition kinetics (spectrophotometric); 1.0 µM LOX-12 incubated with peptide (25-100 µM) for 30 min; arachidonic acid 20-120 µM, 0.2% Tween-20, 50 mM potassium phosphate pH 7.2; absorbance at 269 nm; competitive Ki from the Michaelis-Menten equation (GraphPad Prism)
molecule,measurement,setting,value
"O=c1cc(-c2ccccc2)oc2cc(O)c(O)c(O)c12 [Baicalein, reference compound]",% inhibition,[1],85.1%
WKS (peptide),"% inhibition of LOX-12 enzyme activity (arachidonic acid substrate, absorbance at 269 nm)",[2],53.2%
FWY (peptide),"% inhibition of LOX-12 enzyme activity (arachidonic acid substrate, absorbance at 269 nm)",[2],80.4%
FYS (peptide),"% inhibition of LOX-12 enzyme activity (arachidonic acid substrate, absorbance at 269 nm)",[2],79.8%
N[C@@H](Cc1ccc(O)cc1)C(=O)N[C@@H](Cc1c[nH]c2ccccc12)C(=O)N[C@@H](CS)C(=O)N[C@@H](CO)C(=O)O [YWCS] (H-YWCS-OH),Mode of inhibition,"[3]; linearised analysis of Michaelis-Menten data, in presence of substrate arachidonic acid",competitive mode of inhibition
same,Ki,"[3]; peptide 25-100 µM, arachidonic acid 20-120 µM, enzyme 1.0 µM, Michaelis-Menten fit in graphpad prism, read-out: Competitive kinetic constant Ki",7.25 µM
same,mean percentage apoptotic cells,"[4]; MCF-7, 50 µM",41.2±5.8%
same,mean percentage apoptotic cells,"[4]; MCF-7, 75 µM",49.8% and 49.8±6.5%
same,mean percentage apoptotic cells,"[4]; MCF-7, 100 µM",58.3±7.5%
same,Kd,[5],0.0339 µM
same,percentage cell viability,[6]; 25 µM,88.6%
same,percentage cell viability,[6]; 50 µM,85.7%
same,percentage cell viability,[6]; 100 µM,31.2%
same,percentage cell viability,[6]; 150 µM,21.1%
same,IC50,"[6]; read-out: IC50 (cell viability), triplicate",75 µM
same,"Tumor volume, Day 20","[7]; Group II, 200 µmol i.v. per mouse once daily from day 11 to day 30, control 2.09±0.06",1.62±0.49 cm^3
same,"Tumor volume, Day 30","[7]; Group II, 200 µmol i.v. per mouse once daily from day 11 to day 30, control 4.5±0.24",3.04±1.06 cm^3
same,Size of liver and spleen in sacrificed animals,"[7]; Group II, peptide treated for 20 days, control Group I showed the same",liver and spleen enlargement
same,"Tumor volume, Day 20","[7]; Group III, 200 µmol peptide i.v. simultaneously after injecting EAT cells s.c. on day one",No tumor was observed; also recorded: No tumor onset
same,Percentage of hemolysis of human erythrocytes,[8],22%
same,IC50,[9],400 µM
same,percentage of cell viability,[9]; 50 µM,92%
same,percentage of cell viability,[9]; 100 µM,87.46%
same,percentage of cell viability,[9]; 150 µM,80.36%
same,percentage of cell viability,[9]; 200 µM,72.51%
same,percentage of cell viability,[9]; 350 µM,54.76%
same,percentage of cell viability,[9]; 400 µM,48.19%
same,percentage of cell viability,[9]; 500 µM,43.07%
same,% inhibition,[1],86.1%
same,mean percentage apoptotic cells,"[10]; MDA-MB-231, 350 µM",15.0±1.2%
same,mean percentage apoptotic cells,"[10]; MDA-MB-231, 400 µM",20.8% and 20.8±3.2%
same,mean percentage apoptotic cells,"[10]; MDA-MB-231, 450 µM",22.1±1.5%
FWCS,% inhibition,[1],74.2%
WFC (peptide),"% inhibition of LOX-12 enzyme activity (arachidonic acid substrate, absorbance at 269 nm)",[2],72.1%
AIYW,% inhibition,[1],69.3%
YWG (peptide),"% inhibition of LOX-12 enzyme activity (arachidonic acid substrate, absorbance at 269 nm)",[2],71.6%
YW (peptide),"% inhibition of LOX-12 enzyme activity (arachidonic acid substrate, absorbance at 269 nm)",[2],73.2%
WFA (peptide),"% inhibition of LOX-12 enzyme activity (arachidonic acid substrate, absorbance at 269 nm)",[2],73.5%
B1,"% inhibition of LOX-12 enzyme activity (arachidonic acid substrate, absorbance at 269 nm)",[2],74.2%
B2,"% inhibition of LOX-12 enzyme activity (arachidonic acid substrate, absorbance at 269 nm)",[2],69.3%
B3,"% inhibition of LOX-12 enzyme activity (arachidonic acid substrate, absorbance at 269 nm)",[11],80%
same,"% inhibition of LOX-12 enzyme activity (arachidonic acid substrate, absorbance at 269 nm)",[2],86.1%
same,Ki,[12],7.25 µM
